Source: PMC12749811 (Nature Communications, 2025)

How the values were obtained:
[1] = system: Cal09-WT virus; type: cell-based, influenza A(H1N1)pdm09 virus A/California/07/2009
[2] = system: Cal09-WT virus; type: cell-based, influenza A(H1N1)pdm09 virus A/California/07/2009; remark: listed apart in the source
[3] = system: A/Fujian-Licheng/SWL1661/2023; type: cell-based, influenza A(H1N1)pdm09 virus
[4] = system: A/Sichuan-Shunqing/SWL11211/2023; type: cell-based, influenza A(H1N1)pdm09 virus
[5] = in vivo; cited from earlier work

SMILES: O=C1c2c(O)c(=O)ccn2N([C@@H]2c3ccccc3SCc3c2ccc(F)c3F)[C@@H]2COCCN12 [baloxavir]
- sensitivity in plaque-reduction assay [1]: remained high sensitivity

SMILES: CCOC(=O)C1=C[C@@H](OC(CC)CC)[C@H](NC(C)=O)[C@@H](N)C1 [oseltamivir]
- concentration at which plaque diameters were inhibited [1]: 0.01 µM
- concentration at which virus replication was significantly inhibited [2]: 0.1 µM
- oseltamivir sensitivity [3]: remained oseltamivir-sensitive
- oseltamivir sensitivity [4]: remained oseltamivir-sensitive
- average plasma concentration [5]: 0.33 µM

SMILES: CCC(CC)[C@H](NC(C)=O)[C@@H]1[C@H](O)[C@@H](C(=O)O)C[C@H]1N=C(N)N [peramivir]
- sensitivity in plaque-reduction assay [1]: remained fully sensitive

SMILES: CC(=O)N[C@H]1[C@H]([C@H](O)[C@H](O)CO)OC(C(=O)O)=C[C@@H]1N=C(N)N [zanamivir]
- sensitivity in plaque-reduction assay [1]: remained fully sensitive
